Where two headings read alike, the source gives them in different places.
How the values were obtained:
[1] = test system: U937 human histiocytic leukemia cell line; experiment: Screening for inhibition of TSQ induced necroptosis, 96 well plate format; type: cell-based
Protocol: Screening Compounds for Inhibition of TSQ Induced Necroptosis, 96 Well Plate Format.
U937 human histiocytic leukemia cell line.
35,000 per well in 120 μL of media, counted and plated immediately prior to addition of inhibitor and death stimuli. Final well volume of 150 μL after addition of compounds and death stimuli
HTRPMI (WEHI Media kitchen, contains L-Glutamine and penicillin, streptomycin)—supplemented with 7.4% v/v FCS (Gibco, Precision Plus. Lot #1221437)
48 hours following addition of compounds and death stimuli
DMSO Final Concentration (% v/v): 0.2%
Compounds that are in the Death Stimulation Cocktail and their Final Concentrations: • hTNF-Fc (100 ng/ml)—produced by Silke lab, WEHI • Compound A (500 nM)—Smac mimetic, Tetralogic • Q-VD-OPh (10 μM)—MP Biomedicals
Analysis: • Cells treated with PI staining (1 μg/ml) and analysed by flow cytometry
TNF; S: Smac mimetic; Q: Q-VD-OPh): TSQ treatment ensures that cells specifically undergo necroptotic cell death. TNF activates the TNF receptor, Smac mimetic direct the signal away from proinflammatory signaling and toward the RIP1/RIP3-mediated cell death pathways, and Q-VD-OPh ensures that the apoptotic response is blocked leaving only the programmed necrosis response. The compounds' activity (solution in DMSO) tested in this TSQ-induced assay is evaluated by measuring their ability to block cell death as measured by flow cytometry after PI staining.

U937 cells = experiment: Counter screen: cell viability without TSQ cocktail (off target effect); type: cell-based; conditions: U937 without TSQ cocktail; for Off target effect (% cell death) at 500 nM: compound at 500 nM; for Off target effect (% cell death) at 1 uM: compound at 1 uM; for Off target effect (% cell death) at 5 uM: compound at 5 uM; for Off target effect (% cell death) at 10 uM: compound at 10 uM
Protocol: In parallel, all compounds are tested for their ability to affect cell viability. The same U937 cells are treated with compound in DMSO without the TSQ cocktail. This counter screen enables evaluation of off-target effects. In this case gain, cell viability is measured by flow cytometry after PI staining.

[2] = U-937, U937, TSQ, 48 hours, average IC50, unit not given in Table 2 (titrations in nM), read-out: Cell based assay Average
[3] = U-937, U937, TSQ, 48 hours, unit not given in Table 2 (titrations given in nM), read-out: Cell based assay IC50
[4] = U-937, 48 h, read-out: Cell based assay Average
[5] = U-937, 48 h, read-out: Cell based assay IC50

Row | Structure (SMILES) | IC50 [1, 2] | IC50 [1, 3] | Off target effect (% cell death) at 500 nM (U937 cells) | Off target effect (% cell death) at 1 uM (U937 cells) | Off target effect (% cell death) at 5 uM (U937 cells) | Off target effect (% cell death) at 10 uM (U937 cells) | IC50 [1, 4] | IC50 [1, 5]
1 | COCCNS(=O)(=O)c1cccc(Nc2nccc(N(C)c3ccc(NC(=O)Nc4ccc(OC(F)(F)F)cc4)cc3)n2)c1 [Compound 23, N-(2-Methoxyethyl)-3-(4-(methyl(4-(3-(4-(trifluoromethoxy)phenyl)-ureido)phenyl)amino)pyrimidin-2-ylamino)benzenesulfonamide] | 43.9 nM | 39 nM | 21% | 21% | 22% | 64% |  | 
2 | CN(c1ccc(NC(=O)C(C)(C)c2ccc(OC(F)(F)F)cc2)cc1)c1ccnc(Nc2cccc(S(N)(=O)=O)c2)n1 [Compound 22, 2-methyl-N-(4-(methyl(2-((3-sulfamoylphenyl)amino)pyrimidin-4-yl)amino)phenyl)-2-(4-(trifluoromethoxy)phenyl)propanamide] | 204 nM |  | <20% | <20% | 35% | 80% |  | 
3 | CN(c1ccc(NC(=O)Nc2ccc(OC(F)(F)F)cc2)cc1)c1ccnc(Nc2cccc(C(N)=O)c2)n1 [Compound 8, 3-((4-(methyl(4-(3-(4-(trifluoromethoxy)phenyl)ureido)phenyl)amino)pyrimidin-2-yl)amino) benzamide] | 89.1 nM | 85.2 nM |  |  |  |  |  | 
4 | CCN(c1ccc(NC(=O)Nc2ccc(OC(F)(F)F)cc2)cc1)c1ccnc(Nc2cccc(S(N)(=O)=O)c2)n1 [Compound 26, 3-((4-(ethyl(4-(3-(4-(trifluoromethoxy)phenyl)ureido)phenyl)-amino)pyrimidin-2-yl)amino)benzenesulfonamide] |  |  | <20% | <20% | 43% | 69% | 93.6 nM | 126 nM
5 | CN(c1ccc(NC(=O)Nc2ccc(OC(F)(F)F)cc2)cc1)c1ccnc(Nc2ccccc2S(N)(=O)=O)n1 [Compound 5, 2-(4-(Methyl(4-(3-(4-(trifluoromethoxy)phenyl)ureido)phenyl)amino)pyrimidin-2-ylamino)benzenesulfonamide] | > 10000 nM | ≥ 10000 nM |  |  |  |  |  | 
6 | NS(=O)(=O)c1cccc(Nc2nccc(N(c3ccc(NC(=O)Nc4ccc(OC(F)(F)F)cc4)cc3)C3CC3)n2)c1 [Compound 24, 3-((4-(Cyclopropyl(4-(3-(4-(trifluoromethoxy)phenyl)ureido)-phenyl)amino)-pyrimidin-2-yl)amino)benzenesulfonamide] |  |  | 20% | 21% | 66% | 80% | 176 nM | 144 nM
7 | CN(c1ccc(NC(=O)Nc2ccc(OC(F)(F)F)cc2)cc1)c1ccnc(Nc2cccc(S(=O)(=O)N(C)C)c2)n1 [Compound 10, N,N-dimethyl-3-((4-(methyl(4-(3-(4-(trifluoromethoxy)phenyl)ureido)-phenyl)amino)pyrimidin-2-yl)amino)benzenesulfonamide] | 45.6 nM | 72.4 nM | <20% | <20% | 38% | 69% |  | 
8 | CN(c1ccc(NC(=O)Nc2ccc(OC(F)(F)F)cc2)cc1)c1ccnc(Nc2cccc(CS(N)(=O)=O)c2)n1 [Compound 13, (3-((4-(Methyl(4-(3-(4-(trifluoromethoxy)phenyl)ureido)phenyl)amino)pyrimidin-2-yl)amino)phenyl)methanesulfonamide] | 149 nM | 167 nM | 24% | 20% | 14% | 84% |  | 
